The values below come from PubChem BioAssay (NCI).

Test systems include SR leukemia; LOX IMVI melanoma; RPMI-8226 leukemia; EKVX NSCLC; MDA-MB-231 breast; SK-MEL-5 melanoma; MOLT-4 leukemia; K-562 leukemia; SK-MEL-28 melanoma; SN12C renal; HS 578T breast; MDA-N; SF-295 CNS.
What all share (test): NCI-60 cell line screen, 48 h

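48-hour exposure; five concentrations; linearly interpolated endpoints. TGI: concentration producing complete growth inhibition.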 Where only a bound is given, the exact number is not on record here.

Turning to `CCC12C=CCN3CCC4(c5cc(C(c6ccc(OC)cc6)C6Cc7ccccc7N6)c(OC)cc5N(C)C4C(O)(C(=O)OC)C1O)C32` (configuration not stated), the TGI in the assay with SR leukemia is 27 µM; in the assay on LOX IMVI melanoma, 36 µM; in the assay on RPMI-8226 leukemia, 13.8 µM; in the assay with EKVX NSCLC, more than 100 µM; in the assay with MDA-MB-231 breast, 59.2 µM; in the assay with SK-MEL-5 melanoma, 52 µM. The TGI with MOLT-4 leukemia is 18.2 µM; in the assay with K-562 leukemia, 41.7 µM; in the assay on SK-MEL-28 melanoma, more than 100 µM; in the assay on SN12C renal, more than 100 µM; with HS 578T breast it was more than 100 µM; in the assay on MDA-N, more than 100 µM. Also, in the assay with SF-295 CNS, the TGI was more than 100 µM.

On to `CC(=O)n1[nH]c(=O)n(-c2ccccc2)c1=O`, for which the TGI in the assay with SR leukemia, in the assay on LOX IMVI melanoma, in the assay with RPMI-8226 leukemia, in the assay on EKVX NSCLC, in the assay with MDA-MB-231 breast and in the assay on SK-MEL-5 melanoma was more than 100 µM in each case. In addition, the TGI in the assay on MOLT-4 leukemia, with K-562 leukemia, with SK-MEL-28 melanoma, with SN12C renal, in the assay with HS 578T breast and in the assay with MDA-N was more than 100 µM each time. Besides, the TGI in the assay with SF-295 CNS is more than 100 µM.

With `CC(C)Cn1cnc2c(Cl)nc3ccccc3c21`, the TGI was 66.6 µM with SR leukemia; more than 100 µM in the assay on LOX IMVI melanoma; more than 100 µM with RPMI-8226 leukemia; more than 100 µM in the assay on EKVX NSCLC; more than 100 µM in the assay with MDA-MB-231 breast; 42.2 µM in the assay with SK-MEL-5 melanoma. Further, the TGI in the assay on MOLT-4 leukemia, in the assay with K-562 leukemia, in the assay with SK-MEL-28 melanoma, in the assay on SN12C renal, with HS 578T breast and with MDA-N was more than 100 µM each time. The TGI in the assay on SF-295 CNS is more than 100 µM.

Turning to `O=C1[C@@H](O)[C@@H]2CCCC[C@@]23CCCN13`, the TGI in the assay on SR leukemia, with LOX IMVI melanoma, with RPMI-8226 leukemia, with EKVX NSCLC, in the assay with MDA-MB-231 breast and in the assay on SK-MEL-5 melanoma was more than 100 µM throughout. Also, the TGI in the assay with MOLT-4 leukemia, in the assay with K-562 leukemia, in the assay on SK-MEL-28 melanoma, with SN12C renal, in the assay with HS 578T breast and in the assay with MDA-N was more than 100 µM in each case. This molecule also yielded a TGI with SF-295 CNS of more than 100 µM.
